Data on 3 compounds can be found in ChEMBL document CHEMBL1921728, “β-PNA: peptide nucleic acid (PNA) with a chiral center at the β-position of the PNA backbone” (Bioorg Med Chem Lett, 2011).

SMILES strings stand for the structures. Where only a bound is given, the exact number is not on record here.

Data set [1] can be described thus: Solubility of the compound in water. Type of data set: physicochemical.
Another data set has as its system Nucleic Acid. Description: Binding affinity to 5'-AGTGATCTAC-3' DNA assessed as melting temperature at 5 uM at pH 7.4 by thermal denaturation assay. The class given is nucleic-acid assay.

As for `Cc1cn(CC(=O)N(CC(=O)NCCN(CC(=O)NCCN(CC(=O)NCCN(CC(=O)NC[C@@H](C)N(CC(=O)N[C@H](CCCCN)C(N)=O)C(=O)Cn2cc(C)c(=O)[nH]c2=O)C(=O)Cn2ccc(N)nc2=O)C(=O)Cn2cnc3c(N)ncnc32)C(=O)Cn2ccc(N)nc2=O)[C@H](C)CNC(=O)CN(CCNC(=O)CN(CCNC(=O)CN(CCNC(=O)CN(C(=O)Cn2cc(C)c(=O)[nH]c2=O)[C@H](C)CNC(=O)CN(CCN)C(=O)Cn2cnc3c(=O)[nH]c(N)nc32)C(=O)Cn2cnc3c(N)ncnc32)C(=O)Cn2cnc3c(=O)[nH]c(N)nc32)C(=O)Cn2cnc3c(N)ncnc32)c(=O)[nH]c1=O`, the solubility in data set [1] was above 500 µM.

In data set [1], `Cc1cn(CC(=O)N(CC(=O)NCCN(CC(=O)NCCN(CC(=O)NCCN(CC(=O)NC[C@H](C)N(CC(=O)N[C@@H](CCCCN)C(N)=O)C(=O)Cn2cc(C)c(=O)[nH]c2=O)C(=O)Cn2ccc(N)nc2=O)C(=O)Cn2cnc3c(N)ncnc32)C(=O)Cn2ccc(N)nc2=O)[C@@H](C)CNC(=O)CN(CCNC(=O)CN(CCNC(=O)CN(CCNC(=O)CN(C(=O)Cn2cc(C)c(=O)[nH]c2=O)[C@@H](C)CNC(=O)CN(CCN)C(=O)Cn2cnc3c(=O)[nH]c(N)nc32)C(=O)Cn2cnc3c(N)ncnc32)C(=O)Cn2cnc3c(=O)[nH]c(N)nc32)C(=O)Cn2cnc3c(N)ncnc32)c(=O)[nH]c1=O` registered a solubility above 500 µM. Besides, the melting temperature (Tm) with Nucleic Acid came out at 51 °C.

`Cc1cn(CC(=O)N(CCNC(=O)CN(CCNC(=O)CN(CCNC(=O)CN(CCNC(=O)CN(CCNC(=O)CN(CCN)C(=O)Cn2cnc3c(=O)[nH]c(N)nc32)C(=O)Cn2cc(C)c(=O)[nH]c2=O)C(=O)Cn2cnc3c(N)ncnc32)C(=O)Cn2cnc3c(=O)[nH]c(N)nc32)C(=O)Cn2cnc3c(N)ncnc32)CC(=O)NCCN(CC(=O)NCCN(CC(=O)NCCN(CC(=O)NCCN(CC(=O)N[C@@H](CCCCN)C(N)=O)C(=O)Cn2cc(C)c(=O)[nH]c2=O)C(=O)Cn2ccc(N)nc2=O)C(=O)Cn2cnc3c(N)ncnc32)C(=O)Cn2ccc(N)nc2=O)c(=O)[nH]c1=O` returned a solubility in data set [1] above 500 µM. In addition, the Tm with Nucleic Acid turned out to be 51.4 °C.

As a reminder, the solubility is the concentration that dissolves in the medium under given conditions. Low values mean little dissolved substance, high ones much dissolved substance. Usually Tm stands for the temperature at the midpoint of the melting transition.
